Measured values published in ChEMBL document CHEMBL3425491, “Development of novel ACK1/TNK2 inhibitors using a fragment-based approach” (J Med Chem, 2015).
Values after ≈ are worked out from the molar mass of the structure shown. Active and inactive are the calls of the source. The rule behind the calls is not given here.

Experiments:
[1] = biological target: Angiopoietin-1 receptor (Homo sapiens) (UniProt Q02763); experiment: Inhibition of human TIE2/TEK using poly[Glu:Tyr] (4:1) peptide substrate at 1 uM by 33P Hotspot assay
[2] = biological target: Serine/threonine-protein kinase TBK1 (Homo sapiens) (UniProt Q9UHD2); experiment: Inhibition of human TBK1 using KRRRAL[pS]VASLPGL peptide substrate at 1 uM by 33P Hotspot assay
[3] = biological target: Mitogen-activated protein kinase kinase kinase 8 (Homo sapiens) (UniProt P41279); experiment: Inhibition of human COT1/MAP3K8 using MEK1 (K97R) substrate at 1 uM by 33P Hotspot assay
[4] = biological target: Inhibitor of nuclear factor kappa-B kinase subunit alpha (Homo sapiens) (UniProt O15111); experiment: Inhibition of human IKKa/CHUK using KKKKERLLDDRHDSGLDSMKDEE peptide substrate at 1 uM by 33P Hotspot assay
[5] = biological target: Mitogen-activated protein kinase 3 (Homo sapiens) (UniProt P27361); experiment: Inhibition of human ERK1 using myelin basic protein substrate at 1 uM by 33P Hotspot assay
[6] = biological target: Ephrin type-A receptor 2 (Homo sapiens) (UniProt P29317); experiment: Inhibition of human EPHA2 using poly[Glu:Tyr] (4:1) peptide substrate at 1 uM by 33P Hotspot assay
[7] = biological target: Receptor tyrosine-protein kinase erbB-2 (Homo sapiens) (UniProt P04626); experiment: Inhibition of human ERBB2/HER2 using poly[Glu:Tyr] (4:1) peptide substrate at 1 uM by 33P Hotspot assay
[8] = biological target: High affinity nerve growth factor receptor (Homo sapiens) (UniProt P04629); experiment: Inhibition of human TRKA using poly[Glu:Tyr] (4:1) peptide substrate at 1 uM by 33P Hotspot assay
[9] = cells; conditions: Homo sapiens, VCaP, 72 h
[10] = biological target: Tyrosine-protein kinase CSK (Homo sapiens) (UniProt P41240); experiment: Inhibition of human CSK using poly[Glu:Tyr] (4:1) peptide substrate at 1 uM by 33P Hotspot assay
[11] = biological target: Ribosomal protein S6 kinase beta-1 (Homo sapiens) (UniProt P23443); experiment: Inhibition of human p70S6K/RPS6KB1 using KKRNRTLTK peptide substrate at 1 uM by 33P Hotspot assay
[12] = biological target: Hepatocyte growth factor receptor (Homo sapiens) (UniProt P08581); experiment: Inhibition of human c-MET using KKKSPGEYVNIEFG peptide substrate at 1 uM by 33P Hotspot assay
[13] = biological target: Serine/threonine-protein kinase pim-1 (Homo sapiens) (UniProt P11309); experiment: Inhibition of human PIM1 using KKRNRTLTK peptide substrate at 1 uM by 33P Hotspot assay
[14] = biological target: T1, Fibroblast growth factor receptor 1 (Homo sapiens, UniProt P11362); experiment: Inhibition of human FGFR1 using KKKSPGEYVNIEFG peptide substrate at 1 uM by 33P Hotspot assay
[15] = biological target: Insulin receptor (Homo sapiens) (UniProt P06213); experiment: Inhibition of human IR using poly[Glu:Tyr] (4:1) peptide substrate at 1 uM by 33P Hotspot assay
[16] = biological target: Wee1-like protein kinase (Homo sapiens) (UniProt P30291); experiment: Inhibition of human WEE1 using myelin basic protein substrate at 1 uM by 33P Hotspot assay
[17] = tested on: LAPC4; experiment: Anticancer activity against human LAPC4 cells assessed as inhibition of cell growth up to 10 uM after 72 hrs by trypan blue exclusion assay; assay type: functional, cell-based
[18] = biological target: Serine/threonine-protein kinase Sgk1 (Homo sapiens) (UniProt O00141); experiment: Inhibition of human SGK1 using KGSGSGRPRTSSFAEG peptide substrate at 1 uM by 33P Hotspot assay
[19] = biological target: Tyrosine-protein kinase ABL1 (Homo sapiens, UniProt P00519); experiment: Inhibition of human ABL1 using EAIYAAPFAKKK peptide substrate by 33P Hotspot assay
[20] = biological target: RAC-alpha serine/threonine-protein kinase (Homo sapiens) (UniProt P31749); experiment: Inhibition of human AKT1 using KGSGSGRPRTSSFAEG peptide substrate at 1 uM by 33P Hotspot assay
[21] = biological target: Platelet-derived growth factor receptor alpha (Homo sapiens) (UniProt P16234); experiment: Inhibition of human PDGFRalpha using poly[Glu:Tyr] (4:1) peptide substrate at 1 uM by 33P Hotspot assay
[22] = biological target: Tyrosine-protein kinase Lck (Homo sapiens, UniProt P06239)
[23] = tested on: LNCaP; experiment: cells; conditions: Homo sapiens, 72 h
[24] = biological target: Serine/threonine-protein kinase Chk1 (Homo sapiens) (UniProt O14757); experiment: Inhibition of human CHK1 using KKKVSRSGLYRSPSMPENLNRPR peptide substrate at 1 uM by 33P Hotspot assay
[25] = biological target: Epidermal growth factor receptor (Homo sapiens) (UniProt P00533); experiment: Inhibition of human EGFR using poly[Glu:Tyr] (4:1) peptide substrate at 1 uM by 33P Hotspot assay
[26] = biological target: Serine/threonine-protein kinase Chk1 (Homo sapiens, UniProt O14757); experiment: Inhibition of human CHK1 using KKKVSRSGLYRSPSMPENLNRPR peptide substrate by 33P Hotspot assay
[27] = biological target: T2, Tyrosine-protein kinase JAK2 (Homo sapiens, UniProt O60674); experiment: Inhibition of human JAK2 using poly[Glu:Tyr] (4:1) peptide substrate at 1 uM by 33P Hotspot assay
[28] = biological target: T2, Tyrosine-protein kinase JAK2; experiment: Inhibition of human JAK2 using poly[Glu:Tyr] (4:1) peptide substrate by 33P Hotspot assay
[29] = biological target: RAF proto-oncogene serine/threonine-protein kinase (Homo sapiens) (UniProt P04049); experiment: Inhibition of human RAF1 using MEK1 (K97R) peptide substrate at 1 uM by 33P Hotspot assay
[30] = biological target: T1, Fibroblast growth factor receptor 1; experiment: Inhibition of human FGFR1 using KKKSPGEYVNIEFG peptide substrate by 33P Hotspot assay
[31] = Solubility in PBS with 10% DMSO; assay type: physicochemical; conditions: buffer
[32] = biological target: Tyrosine-protein kinase BTK (Homo sapiens) (UniProt Q06187); experiment: Inhibition of human BTK using […] peptide substrate at 1 uM by 33P Hotspot assay
[33] = biological target: T3, Non-receptor tyrosine-protein kinase TYK2 (Homo sapiens, UniProt P29597); experiment: Inhibition of human TYK2 using KKSRGDYMTMQIG peptide substrate at 1 uM by 33P Hotspot assay
[34] = biological target: Glycogen synthase kinase-3 alpha (Homo sapiens) (UniProt P49840); conditions: at 1 µM
[35] = biological target: Vascular endothelial growth factor receptor 2 (Homo sapiens) (UniProt P35968); experiment: Inhibition of human KDR/VEGFR2 using poly[Glu:Tyr] (4:1) peptide substrate at 1 uM by 33P Hotspot assay
[36] = tested on: Plasma; experiment: Half life in human plasma; assay type: ADME, cell-free
[37] = biological target: Proto-oncogene tyrosine-protein kinase ROS (Homo sapiens, UniProt P08922); experiment: Inhibition of human ROS/ROS1 using KKKSPGEYVNIEFG peptide substrate by 33P Hotspot assay
[38] = biological target: Tyrosine-protein kinase receptor UFO (Homo sapiens) (UniProt P30530); experiment: Inhibition of human AXL using EAIYAAPFAKKK peptide substrate at 1 uM by 33P Hotspot assay
[39] = biological target: T3, Non-receptor tyrosine-protein kinase TYK2; experiment: Inhibition of human TYK2 using KKSRGDYMTMQIG peptide substrate by 33P Hotspot assay
[40] = biological target: Tyrosine-protein kinase FRK (Homo sapiens) (UniProt P42685); experiment: Inhibition of human FRK/PTK5 using poly[Glu:Tyr] (4:1) peptide substrate at 1 uM by 33P Hotspot assay
[41] = biological target: Serine/threonine-protein kinase mTOR (Homo sapiens) (UniProt P42345); experiment: Inhibition of human mTOR/FRAP1 using 4EBP1 peptide substrate at 1 uM by 33P Hotspot assay
[42] = biological target: T4, Activated CDC42 kinase 1 (Homo sapiens, UniProt Q07912); experiment: Inhibition of human ACK1 kinase activity using biotinylated ATGRYYAMKIL - AKT peptide substrate assessed as phosphorylation at 10 uM by ELISA; assay type: single protein
Target sequence in this assay (Q07912 whole entry, looked up): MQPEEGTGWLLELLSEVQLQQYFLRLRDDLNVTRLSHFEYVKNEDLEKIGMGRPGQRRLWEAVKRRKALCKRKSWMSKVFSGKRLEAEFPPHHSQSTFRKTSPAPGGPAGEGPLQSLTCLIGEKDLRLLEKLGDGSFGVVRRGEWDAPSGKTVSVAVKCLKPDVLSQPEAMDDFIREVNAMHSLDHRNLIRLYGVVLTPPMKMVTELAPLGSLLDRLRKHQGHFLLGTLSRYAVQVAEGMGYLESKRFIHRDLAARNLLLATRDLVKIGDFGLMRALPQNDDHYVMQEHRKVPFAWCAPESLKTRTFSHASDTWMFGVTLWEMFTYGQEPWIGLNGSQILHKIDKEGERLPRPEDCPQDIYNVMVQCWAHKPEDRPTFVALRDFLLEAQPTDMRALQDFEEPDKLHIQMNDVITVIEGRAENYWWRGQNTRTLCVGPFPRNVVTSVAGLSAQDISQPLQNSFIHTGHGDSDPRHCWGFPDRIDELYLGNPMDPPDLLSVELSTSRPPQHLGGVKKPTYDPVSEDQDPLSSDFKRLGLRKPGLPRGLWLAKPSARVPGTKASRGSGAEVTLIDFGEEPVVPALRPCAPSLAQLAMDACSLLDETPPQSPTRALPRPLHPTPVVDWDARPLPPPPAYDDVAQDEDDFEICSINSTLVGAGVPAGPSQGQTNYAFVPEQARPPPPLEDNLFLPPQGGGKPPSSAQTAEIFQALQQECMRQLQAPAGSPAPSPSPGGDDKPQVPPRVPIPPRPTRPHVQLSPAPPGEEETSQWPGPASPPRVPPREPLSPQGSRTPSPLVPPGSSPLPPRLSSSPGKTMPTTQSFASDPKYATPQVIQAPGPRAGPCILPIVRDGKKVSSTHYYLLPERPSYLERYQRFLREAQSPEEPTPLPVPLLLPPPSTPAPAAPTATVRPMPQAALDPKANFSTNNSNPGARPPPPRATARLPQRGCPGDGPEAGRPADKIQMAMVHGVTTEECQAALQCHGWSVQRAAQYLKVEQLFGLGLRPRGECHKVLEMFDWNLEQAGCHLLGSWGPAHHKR

[43] = biological target: T4, Activated CDC42 kinase 1; experiment: Inhibition of ACK1 kinase (unknown origin)
Target sequence in this assay (Q07912 whole entry): as the sequence (Q07912 whole entry, looked up) above

T2 sequence (O60674 whole entry): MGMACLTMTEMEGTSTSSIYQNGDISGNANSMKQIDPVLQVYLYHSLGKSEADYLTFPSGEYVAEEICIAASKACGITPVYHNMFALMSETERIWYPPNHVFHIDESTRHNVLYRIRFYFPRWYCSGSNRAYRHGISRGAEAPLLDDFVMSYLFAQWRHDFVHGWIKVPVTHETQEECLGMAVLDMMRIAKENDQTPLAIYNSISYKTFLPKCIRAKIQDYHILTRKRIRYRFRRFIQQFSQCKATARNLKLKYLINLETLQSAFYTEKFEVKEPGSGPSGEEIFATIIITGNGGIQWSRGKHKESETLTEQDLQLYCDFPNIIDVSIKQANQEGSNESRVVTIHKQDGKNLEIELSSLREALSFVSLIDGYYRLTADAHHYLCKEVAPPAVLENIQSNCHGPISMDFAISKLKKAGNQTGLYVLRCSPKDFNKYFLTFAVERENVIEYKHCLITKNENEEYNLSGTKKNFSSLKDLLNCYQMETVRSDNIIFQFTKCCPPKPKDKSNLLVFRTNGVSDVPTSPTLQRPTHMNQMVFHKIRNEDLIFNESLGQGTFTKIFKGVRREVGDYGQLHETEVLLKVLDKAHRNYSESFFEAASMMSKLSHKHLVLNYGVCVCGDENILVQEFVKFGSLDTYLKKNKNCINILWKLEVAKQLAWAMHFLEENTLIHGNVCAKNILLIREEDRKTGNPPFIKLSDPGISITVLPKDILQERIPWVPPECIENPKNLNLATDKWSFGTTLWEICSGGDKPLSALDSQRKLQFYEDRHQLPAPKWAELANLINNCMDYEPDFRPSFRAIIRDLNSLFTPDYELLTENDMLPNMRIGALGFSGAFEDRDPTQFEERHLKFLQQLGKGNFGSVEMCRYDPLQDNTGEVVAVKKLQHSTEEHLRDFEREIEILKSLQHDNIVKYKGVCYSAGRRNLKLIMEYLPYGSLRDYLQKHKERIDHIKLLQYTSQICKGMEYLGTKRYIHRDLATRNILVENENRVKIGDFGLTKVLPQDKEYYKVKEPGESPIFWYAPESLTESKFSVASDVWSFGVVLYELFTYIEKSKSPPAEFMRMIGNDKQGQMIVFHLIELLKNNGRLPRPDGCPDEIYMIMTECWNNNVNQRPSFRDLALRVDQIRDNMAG
T3 sequence (P29597 whole entry): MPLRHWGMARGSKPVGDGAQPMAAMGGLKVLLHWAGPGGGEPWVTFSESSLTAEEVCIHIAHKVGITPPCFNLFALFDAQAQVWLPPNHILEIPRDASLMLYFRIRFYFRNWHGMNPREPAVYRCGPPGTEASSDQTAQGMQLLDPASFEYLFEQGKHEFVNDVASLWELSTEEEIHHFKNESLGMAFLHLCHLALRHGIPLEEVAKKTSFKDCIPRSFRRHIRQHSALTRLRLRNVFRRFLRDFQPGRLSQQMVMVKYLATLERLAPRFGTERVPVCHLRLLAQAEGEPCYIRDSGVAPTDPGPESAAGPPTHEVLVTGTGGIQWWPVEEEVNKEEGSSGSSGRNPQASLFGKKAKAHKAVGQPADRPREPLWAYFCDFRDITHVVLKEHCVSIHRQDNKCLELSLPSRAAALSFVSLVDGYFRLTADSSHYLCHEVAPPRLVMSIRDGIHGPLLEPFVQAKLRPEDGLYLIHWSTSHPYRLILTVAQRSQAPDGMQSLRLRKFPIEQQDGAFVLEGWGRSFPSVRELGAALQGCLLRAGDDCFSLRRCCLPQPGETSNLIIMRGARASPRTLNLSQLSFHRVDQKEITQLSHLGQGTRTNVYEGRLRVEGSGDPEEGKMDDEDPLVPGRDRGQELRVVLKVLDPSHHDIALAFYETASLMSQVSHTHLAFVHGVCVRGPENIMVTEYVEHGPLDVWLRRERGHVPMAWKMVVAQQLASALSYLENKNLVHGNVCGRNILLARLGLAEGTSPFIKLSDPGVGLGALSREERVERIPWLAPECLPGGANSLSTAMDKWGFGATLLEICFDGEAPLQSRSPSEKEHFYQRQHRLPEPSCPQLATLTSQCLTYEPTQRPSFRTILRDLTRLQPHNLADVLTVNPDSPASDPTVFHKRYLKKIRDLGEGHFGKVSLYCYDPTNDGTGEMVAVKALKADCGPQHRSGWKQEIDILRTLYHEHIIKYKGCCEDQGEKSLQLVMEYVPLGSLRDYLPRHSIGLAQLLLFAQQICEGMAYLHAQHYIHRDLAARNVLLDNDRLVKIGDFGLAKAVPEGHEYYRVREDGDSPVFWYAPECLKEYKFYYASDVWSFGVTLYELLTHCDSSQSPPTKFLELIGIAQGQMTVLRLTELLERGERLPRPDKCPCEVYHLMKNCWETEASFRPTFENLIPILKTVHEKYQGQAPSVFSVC
Sequence of Tyrosine-protein kinase Lck (P06239 whole entry): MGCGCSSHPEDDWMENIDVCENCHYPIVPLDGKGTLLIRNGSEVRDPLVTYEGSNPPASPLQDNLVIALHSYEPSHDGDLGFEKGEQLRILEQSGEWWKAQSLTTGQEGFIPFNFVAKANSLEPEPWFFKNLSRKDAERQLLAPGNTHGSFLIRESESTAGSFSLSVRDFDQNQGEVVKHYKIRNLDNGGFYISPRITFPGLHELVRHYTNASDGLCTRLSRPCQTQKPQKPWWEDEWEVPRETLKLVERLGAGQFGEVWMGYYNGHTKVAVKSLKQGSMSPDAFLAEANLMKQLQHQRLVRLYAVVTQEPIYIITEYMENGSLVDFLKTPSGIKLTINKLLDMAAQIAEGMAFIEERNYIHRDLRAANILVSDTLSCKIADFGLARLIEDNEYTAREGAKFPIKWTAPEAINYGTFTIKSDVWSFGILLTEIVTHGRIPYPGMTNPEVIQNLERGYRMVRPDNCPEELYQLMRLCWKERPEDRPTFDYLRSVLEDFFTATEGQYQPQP
Sequence of High affinity nerve growth factor receptor (Homo sapiens) (P04629 33-796 limits assumed): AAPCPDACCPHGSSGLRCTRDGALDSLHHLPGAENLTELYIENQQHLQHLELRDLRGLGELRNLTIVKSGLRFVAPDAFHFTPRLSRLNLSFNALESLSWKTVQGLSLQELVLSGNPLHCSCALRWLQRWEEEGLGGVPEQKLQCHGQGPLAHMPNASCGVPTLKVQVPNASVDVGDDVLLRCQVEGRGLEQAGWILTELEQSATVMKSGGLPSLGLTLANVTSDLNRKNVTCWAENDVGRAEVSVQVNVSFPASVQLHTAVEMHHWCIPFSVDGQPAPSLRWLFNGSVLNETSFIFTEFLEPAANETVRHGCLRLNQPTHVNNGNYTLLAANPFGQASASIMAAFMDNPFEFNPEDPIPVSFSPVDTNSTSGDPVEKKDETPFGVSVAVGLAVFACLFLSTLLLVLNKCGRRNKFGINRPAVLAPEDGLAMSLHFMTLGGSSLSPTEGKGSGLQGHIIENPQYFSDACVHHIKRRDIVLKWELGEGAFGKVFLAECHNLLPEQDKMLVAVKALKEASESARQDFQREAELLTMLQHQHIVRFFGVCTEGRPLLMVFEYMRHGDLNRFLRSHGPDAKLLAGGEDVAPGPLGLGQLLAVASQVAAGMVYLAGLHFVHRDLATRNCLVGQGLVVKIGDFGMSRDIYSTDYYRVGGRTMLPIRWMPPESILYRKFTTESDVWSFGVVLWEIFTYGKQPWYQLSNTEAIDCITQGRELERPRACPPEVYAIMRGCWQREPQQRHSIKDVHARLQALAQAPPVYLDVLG
Sequence of Mitogen-activated protein kinase 3 (Homo sapiens) (P27361 whole entry): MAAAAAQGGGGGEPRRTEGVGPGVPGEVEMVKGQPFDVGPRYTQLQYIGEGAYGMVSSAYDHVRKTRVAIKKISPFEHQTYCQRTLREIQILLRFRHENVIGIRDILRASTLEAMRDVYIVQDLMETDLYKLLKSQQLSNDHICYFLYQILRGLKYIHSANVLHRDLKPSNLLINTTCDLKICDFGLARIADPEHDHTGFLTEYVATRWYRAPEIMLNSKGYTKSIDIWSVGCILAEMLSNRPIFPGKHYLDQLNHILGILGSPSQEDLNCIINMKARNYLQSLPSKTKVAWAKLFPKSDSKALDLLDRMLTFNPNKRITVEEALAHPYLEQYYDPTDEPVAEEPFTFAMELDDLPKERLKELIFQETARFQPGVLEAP

CN1CCN(c2ccc(Nc3ncc(Cl)c(NC[C@H]4CCCO4)n3)cc2)CC1
inhibition [1]: 32% | inhibition [2]: 71.8% | inhibition [3]: -7.7% | inhibition [4]: 0.4% | inhibition [5]: 1.9% | inhibition [6]: 31.9% | inhibition [7]: -1.1% | inhibition [8]: 63.2% | IC50 [9]: 2 µM | inhibition [10]: 26.3% | inhibition [11]: 24.1% | inhibition [12]: 23.1% | inhibition [13]: 3.6% | inhibition [14]: 86.4% | inhibition [15]: 46.6% | inhibition [16]: 12.4% | inhibition [17]: Active | inhibition [18]: 26% | IC50 [19]: 0.206 µM | inhibition [20]: 4.7% | inhibition [21]: 42.7% | IC50 [22]: 0.136 µM | IC50 [23]: 1.8 µM | inhibition [24]: 84.8% | inhibition [25]: -2.8% | IC50 [26]: 0.154 µM | inhibition [27]: 98.6% | IC50 [28]: 0.006 µM | inhibition [29]: -0.8% | IC50 [30]: 0.16 µM | solubility [31]: 1000 µg/mL (≈ 2480 µM) | inhibition [32]: 45.1% | inhibition [33]: 98.9% | inhibition [34]: 5.1% | inhibition [35]: 67.3% | t1/2 [36]: > 6 h | IC50 [37]: 0.124 µM | inhibition [38]: 75.9% | IC50 [39]: 0.005 µM | inhibition [40]: 41.3% | inhibition [41]: -5.6%

O=C(Nc1c(F)cccc1Cl)c1cnc(Nc2ccc(O)c(F)c2)nc1NCC1CCCO1 (stereo unspecified)
inhibition [42]: 66%

O=C(O)CCC(=O)N1CCN(c2ccc(Nc3ncc(Br)c(NCC4CCCO4)n3)cc2)CC1 (stereo unspecified)
inhibition [42]: 92%

CN1CCN(c2ccc(Nc3ncc(C(=O)Nc4c(F)cccc4Cl)c(NCC4CCCO4)n3)cc2)CC1 (stereo unspecified)
inhibition [42]: 97%

O=C(O)C1CCN(c2ccc(Nc3ncc(Cl)c(NCC4CCCO4)n3)cc2)CC1 (racemic)
inhibition [42]: 93%

CN(C)CCOc1ccc(-c2oc3ncnc(NCC4SCCS4)c3c2-c2ccccc2)cc1
Ki [22]: 0.138 µM | Ki [43]: 0.0003 µM

O=C(Nc1c(F)cccc1Cl)c1cnc(Nc2ccc(N3CCNCC3)cc2)nc1NCC1CCCO1 (racemic)
inhibition [42]: 89.5%

Brc1cnc(Nc2ccc(N3CCOCC3)cc2)nc1NCC1CCCO1 (racemic)
inhibition [42]: 89%

O=C(O)Cc1ccc(Nc2ncc(Cl)c(NCC3CCCO3)n2)cc1 (stereo unspecified)
inhibition [42]: 76.5%

O=C(O)CCc1ccc(Nc2ncc(Br)c(NCC3CCCO3)n2)cc1 (stereo unspecified)
inhibition [42]: 74.5%

O=C(O)Cc1ccc(Nc2ncc(Br)c(NCC3CCCO3)n2)cc1 (stereo unspecified)
inhibition [42]: 61%

COC(C)(C)CCn1nc(Nc2c(C)cccc2C)c2cnc(Nc3ccccc3)nc21
IC50 [43]: 0.002 µM

O=C(O)CCc1ccc(Nc2ncc(Cl)c(NCC3CCCO3)n2)cc1 (stereo unspecified)
inhibition [42]: 74%

CN(C)CCNC(=O)CCc1ccc(Nc2ncc(Cl)c(NCC3CCCO3)n2)cc1 (stereo unspecified)
inhibition [42]: 68%

CN1CCN(c2ccc(Nc3ncc(Cl)c(NC[C@@H]4CCCO4)n3)cc2)CC1
IC50 [9]: 4 µM | inhibition [17]: Active | solubility [31]: 900 µg/mL (≈ 2230 µM) | t1/2 [36]: > 6 h | IC50 [43]: 0.082 µM

O=C(Nc1c(F)cccc1Cl)c1cnc(Nc2ccc(N3CCOCC3)cc2)nc1NCC1CCCO1 (racemic)
inhibition [42]: 82%
